# Results as given in US12048309B2, “Materials and methods for preventing and dispersing exopolysaccharide-containing biofilms involving Listeria monocytogenes” (University of Wyoming, priority 2021, dated 2024).
# Test system: EPS-biofilm formation by L. monocytogenes
# Experiment: Test of major ingredients of red maple (Acer rubrum) methanol extract for preventing EPS-biofilm formation
# Assay type: cell-based, Listeria monocytogenes
# Conditions: ingredients of methanol extract of dried red maple stems
# Experimental: To identify active components responsible for preventing EPS-biofilm formation by L. monocytogenes, major ingredients from methanol extract of dried red maple stems, Acer rubrum, were tested. The tested compositions included catechin, epicatechin, procyanidin A2, epicatechin gallate, nortrachelogenin (also known as pinopalustrin), and nortrachelogenin 8′-O-β-D-glucopyranoside (also known as nortrachelogenin-8′-O-beta-glucoside).
# Other major ingredients of the maple methanol extract, including catechin, epicatechin, procyanidin A2, and epicatechin gallate had no effect.
row,Molecule,antibiofilm activity
1,O=C(O[C@@H]1Cc2c(O)cc(O)cc2O[C@@H]1c1ccc(O)c(O)c1)c1cc(O)c(O)c(O)c1 [epicatechin gallate],no effect
2,Oc1cc(O)c2c(c1)O[C@@]1(c3ccc(O)c(O)c3)Oc3cc(O)c4c(c3[C@@H]2[C@H]1O)O[C@H](c1ccc(O)c(O)c1)[C@H](O)C4 [procyanidin A2],no effect
3,COc1cc(CC2COC(=O)C2(O)Cc2ccc(O)c(OC)c2)ccc1O (centres unmarked) [nortrachelogenin],no significant antibiofilm activity
4,catechin,no effect
5,Oc1cc(O)c2c(c1)O[C@H](c1ccc(O)c(O)c1)[C@H](O)C2 [epicatechin],no effect
